{
  "source": "paper PMC6934184",
  "about": "“Selective DNA-PKcs inhibition extends the therapeutic index of localized radiotherapy and chemotherapy” (The Journal of Clinical Investigation, 2019)",
  "target": "T1, BMPR2 (Homo sapiens, UniProt Q13873)",
  "T1 construct": "purchased Thermo Fisher Scientific (Life Technologies) SelectScreen",
  "T1 sequence (Q13873 27-1038)": "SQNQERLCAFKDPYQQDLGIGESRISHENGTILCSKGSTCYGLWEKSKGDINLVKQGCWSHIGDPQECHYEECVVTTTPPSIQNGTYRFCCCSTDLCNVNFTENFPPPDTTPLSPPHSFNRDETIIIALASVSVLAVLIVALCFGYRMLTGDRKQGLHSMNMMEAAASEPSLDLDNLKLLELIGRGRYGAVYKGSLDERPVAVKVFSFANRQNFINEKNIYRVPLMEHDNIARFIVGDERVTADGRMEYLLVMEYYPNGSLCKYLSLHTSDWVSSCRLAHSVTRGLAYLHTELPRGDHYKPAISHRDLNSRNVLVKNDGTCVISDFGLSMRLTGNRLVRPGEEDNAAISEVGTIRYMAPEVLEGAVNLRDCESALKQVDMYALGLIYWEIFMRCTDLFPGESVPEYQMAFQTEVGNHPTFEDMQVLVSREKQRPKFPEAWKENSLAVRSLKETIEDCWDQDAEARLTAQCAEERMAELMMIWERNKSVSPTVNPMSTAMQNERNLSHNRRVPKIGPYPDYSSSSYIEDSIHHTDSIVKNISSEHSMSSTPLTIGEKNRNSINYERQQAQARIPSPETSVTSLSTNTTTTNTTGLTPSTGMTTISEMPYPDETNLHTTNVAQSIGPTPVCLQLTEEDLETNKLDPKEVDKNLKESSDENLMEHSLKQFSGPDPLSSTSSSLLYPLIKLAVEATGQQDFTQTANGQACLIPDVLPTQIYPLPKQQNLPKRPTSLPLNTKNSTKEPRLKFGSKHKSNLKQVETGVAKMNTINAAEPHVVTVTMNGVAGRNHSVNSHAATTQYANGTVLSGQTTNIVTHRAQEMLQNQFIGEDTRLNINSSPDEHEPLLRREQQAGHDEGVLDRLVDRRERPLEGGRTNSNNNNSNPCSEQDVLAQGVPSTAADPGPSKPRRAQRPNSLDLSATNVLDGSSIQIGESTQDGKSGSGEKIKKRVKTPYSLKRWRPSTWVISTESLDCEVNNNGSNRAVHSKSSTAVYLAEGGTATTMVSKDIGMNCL",
  "assay": "SelectScreen LanthaScreen",
  "assay_type": "binding",
  "conditions": "1 µM",
  "how_it_was_run": "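NU5455 was profiled across the SelectScreen Broad panel of kinase activity and binding assays. Z'LYTE reactions such as CSF1R ran at apparent Km ATP, while the Adapta CAMK1 assay used ATP listed as 10. Values are given as percent.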",
  "data": [
    {"smiles": "CN(C(=O)CN1CCOCC1)c1ccc2sc3c(-c4cccc5c(=O)cc(N6CC7CCC(C6)O7)oc45)cccc3c2c1", "note": "[NU5455]", "values": [
      {"measurement": "% displacement", "value": -2.5, "unit": "%"}
    ]}
  ]
}
